Assay results taken from EP0995441A2, “Combination of compounds for treating erectile dysfunctions” (priority 1998, dated 2000).
Where “and” joins values, the source holds several entries; their conditions need not be identical. Equal values may be shown once.

Tests used:
[1] = test system: Patienten mit Sildenafilresistenz; test: Clinical study: erection response after oral drug combination in patients not responding to sildenafil alone; format: in vivo
Protocol: Überraschenderweise erwies sich in klinischen Studien, daß Patienten mit erektiler Impotenz (ED) nach Therapieversagen unter der Behandlung mit Sildenafil allein (ED-SN negativ nach Sildenafil-Therapie in einer Menge von 100 mg Sildenafil) mit der erfindungsgemäßen Medikamentenkombination erfolgreich therapierbar waren.
Tabelle 1 zeigt die Wirkung einer Medikamentenkombination, bestehend aus Sildenafil und Midodrin der chemischen Strukturformel: [drawing 3] wobei die Sildenafil-Mengen von 10 bis 100 mg und die Midodrin-Mengen von 5 bis 25 mg variiert wurden.
Bei 10 Patienten mit ED-SN im Alter zwischen 45 bis 65 Jahren ohne Nitropräparate und koronare Herzkrankheiten lag beispielsweise die Ansprechrate der Medikamentenkombination, bestehend aus 50 mg Sildenafil und 25 mg Midodrin bei 7 von 10 Patienten, wenn die Medikamentenkombination in Form von Zwei-Kompartment-Dragees gegeben wurde.
Bei Gabe der Medikamentenkombination in einer üblichen Retard-Form gelang es, die Ansprechrate auf 8 von 10 Patienten zu erhöhen. Tabelle 1

[2] = test system: Sphincter internus und Sphincter externus; test: Endoscopic observation and fibre-optic pressure measurement in the prostatic urethra after injection into the corpora cavernosa; format: in vivo, Patienten mit Priapismus; details: Vergleichsgruppe with clinically sufficient erection after 100 mg Sildenafil
Excerpt: Diese pharmakologischen Veränderungen sind ein indirekter Hinweis auf die alterierte Gefäßabflußsituation im Funktionsbereich der angrenzenden Organe an die Corpora cavernosa.

[3] = Sildenafil Monodosis 100 mg, control of the Retardform group

CCCc1nn(C)c2c(=O)[nH]c(-c3cc(S(=O)(=O)N4CCN(C)CC4)ccc3OCC)nc12 [Sildenafil]
Kontrolle, 1. REAKTION (INITIALPHASE): patients reacting out of 10 ([1]; Sildenafil Monodosis 10 mg): 0/10
Kontrolle, 50% REAKTION: patients reacting out of 10 ([1]; Sildenafil Monodosis 10 mg): 0/10
Kontrolle, MAXIMALE EREKTION: patients reacting out of 10 ([1]; Sildenafil Monodosis 10 mg): 0/10
Kontrolle, 1. REAKTION (INITIALPHASE): patients reacting out of 10 ([1]; Sildenafil Monodosis 50 mg): 0/10 and 1/10
Kontrolle, 50% REAKTION: patients reacting out of 10 ([1]; Sildenafil Monodosis 50 mg): 0/10
Kontrolle, MAXIMALE EREKTION: patients reacting out of 10 ([1]; Sildenafil Monodosis 50 mg): 0/10
Kontrolle, 1. REAKTION (INITIALPHASE): patients reacting out of 10 ([1]; Sildenafil Monodosis 100 mg): 1/10 and 0/10
Kontrolle, 50% REAKTION: patients reacting out of 10 ([1]; Sildenafil Monodosis 100 mg): 1/10 and 0/10
Kontrolle, MAXIMALE EREKTION: patients reacting out of 10 ([1]; Sildenafil Monodosis 100 mg): 0/10
Kontrolle, 50% REAKTION: time [1, 3]: 105 min
Kontrolle, MAXIMALE EREKTION: time [1, 3]: 120 min
Druckwerte im Bereich des Sphincter internus sowie des Sphincter externus [2]: keine vergleichbaren hohen Druckwerte
